Assay results taken from patent publication US20010054579A1, “METHOD OF SEPARATING DIFFERENT CHEMICALS IN A SAMPLE” (priority 1997, published 2001).

Key:
Assay type in all cases: physicochemical
[1] = Reversed-phase liquid chromatography retention factor (log k) on pentyl bonded phase; conditions: C5 column; for log k in 80% CH3CN, C5: aqueous 80% acetonitrile at 40° C.
Text: (§1) The inertness and the chemical stability of the synthesized hexyl-phenyl bonded silica gel were studied by looking at the retention factors and peak shapes of pyridine, benzoic acid, 8-hydroxyquinoline, and naphthalene disclosed in T. Hanai, Encyclopedia of Analytical Science (1995), Academic Press, London, p. […] which is hereby incorporated herein by reference. The retention factor, in terms of measured parameters, is “k=(tR−tO)/tO”: where tR is retention time of the measured peak; and to is retention time of non-retained component.
(§2) The retention capacities of alkyl-phenyl bonded silica gels were compared from the retention factors for alkylbenzenes and polycyclic aromatic hydrocarbons (PAH).
(§3) […] The log k values were used for the analysis of hydrophobicity of bonded phases using van der Waals volumes of analytes as the standard.
(§4) The liquid chromatograph was a model HP1090 from Hewlett-Packard (Palo Alto, Calif. USA), and the chemically-bonded silica gel columns, —C18, —C8 and —C5, —C6Ph, —C3Ph, 15 cm×4.6 mm I.D., were from Phenomenex Inc. (Torrance, Calif. USA). Chemicals used were from Aldrich and ChemService. HPLC grade acetonitrile and water were from Fisher Scientific (Tustin, Calif. USA).

[2] = Reversed-phase liquid chromatography retention factor (log k) on hexyl-phenyl bonded phase; conditions: C6Ph column; for log k in 80% CH3CN, C6Ph: aqueous 80% acetonitrile at 40° C.
Text: as §1, §2, §3, §4

[3] = Reversed-phase liquid chromatography retention factor (log k) on octyl bonded phase; conditions: C8 column; for log k in 80% CH3CN, C8: aqueous 80% acetonitrile at 40° C.
Text: as §1, §2, §3, §4

[4] = Reversed-phase liquid chromatography retention factor (log k) on propyl-phenyl bonded phase; conditions: C3Ph column; for log k in 80% CH3CN, C3Ph: aqueous 80% acetonitrile at 40° C.
Text: as §1, §2, §3, §4

[5] = Reversed-phase liquid chromatography retention factor (log k) on octadecyl bonded phase; conditions: C18 column; for log k in 80% CH3CN, C18: aqueous 80% acetonitrile at 40° C.
Text: as §1, §2, §3, §4

Row | Compound | log k in 70% CH3CN, C5 [1] | log k in 70% CH3CN, C6Ph [2] | log k in 70% CH3CN, C8 [3] | log k in 70% CH3CN, C3Ph [4] | log k in 70% CH3CN, C18 [5] | log k in 80% CH3CN, C5 [1] | log k in 80% CH3CN, C6Ph [2] | log k in 80% CH3CN, C18 [5] | log k in 80% CH3CN, C8 [3] | log k in 80% CH3CN, C3Ph [4]
1 | c1cc2ccc3ccc4ccc5cccc6c(c1)c2c3c4c56 [Benzo(g,h,i)perylene] | 0.822 | 1.118 | 1.067 | 0.799 | – | – | – | – | – | –
2 | c1ccc2c(c1)cc1ccc3cccc4ccc2c1c34 [Benzo(a)pyrene] | 0.755 | 1.009 | 0.071 | 0.733 | 1.375 | – | – | – | – | –
3 | CCCCCCCCc1ccccc1 [Octylbenzene] | 1.144 | 1.095 | 1.318 | 0.947 | 1.673 | 0.906 | 0.757 | 1.356 | 1.063 | 0.589
4 | CCCCCCCCCCc1ccccc1 [Decylbenzene] | 1.400 | 1.313 | – | 1.146 | – | 1.139 | 0.941 | 1.697 | 1.324 | 0.748
5 | c1ccc2c(c1)ccc1cc3c(ccc4ccccc43)cc12 [Dibenzo(a,h)anthracene] | 0.803 | 1.071 | 1.032 | 0.806 | 1.479 | – | – | – | – | –
6 | c1ccc2cc3c(ccc4ccccc43)cc2c1 [Benzo(a)anthracene] | 0.692 | 0.878 | 0.860 | 0.647 | 1.177 | – | – | – | – | –
7 | c1ccccc1 [Benzene] | 0.209 | 0.230 | 0.281 | 0.167 | 0.340 | – | – | – | – | –
8 | c1cc2ccc3cccc4ccc(c1)c2c34 [Pyrene] | 0.614 | 0.778 | 0.777 | 0.553 | 1.038 | – | – | – | – | –
9 | CCCCCc1ccccc1 [Pentylbenzene] | 0.772 | 0.758 | 0.908 | 0.646 | 1.134 | 0.567 | 0.480 | 0.858 | 0.680 | 0.350
10 | c1ccc2c(c1)Cc1ccccc1-2 [Fluorene] | 0.527 | 0.602 | 0.629 | 0.436 | 0.794 | – | – | – | – | –
11 | c1ccc2c(c1)ccc1c3ccccc3ccc21 [Chrysene] | 0.673 | 0.869 | 0.842 | 0.635 | 1.160 | – | – | – | – | –
12 | c1ccc2cc3ccccc3cc2c1 [Anthracene] | 0.562 | 0.679 | 0.688 | 0.490 | 0.894 | – | – | – | – | –
13 | c1ccc2c(c1)-c1cccc3c1c-2cc1ccccc13 [Benzo(b)fluoranthene] | 0.741 | 0.970 | 0.943 | 0.714 | 1.325 | – | – | – | – | –
14 | c1ccc2c(c1)-c1cccc3cccc-2c13 [Fluoranthene] | 0.599 | 0.746 | 0.747 | 0.535 | 0.989 | – | – | – | – | –
15 | c1ccc2c(c1)ccc1ccccc12 [Phenanthrene] | 0.538 | 0.655 | 0.660 | 0.468 | 0.854 | – | – | – | – | –
16 | CCCCCCCc1ccccc1 [Heptylbenzene] | 1.019 | 0.985 | 1.181 | 0.851 | 1.491 | 0.794 | 0.667 | 1.188 | 0.937 | 0.512
17 | CCCc1ccccc1 [Propylbenzene] | 0.537 | 0.538 | 0.644 | 0.449 | 0.800 | 0.362 | 0.303 | 0.548 | 0.442 | 0.196
18 | c1ccc2ccccc2c1 [Naphthalene] | 0.410 | 0.470 | 0.486 | 0.305 | 0.582 | – | – | – | – | –
19 | c1cc2c3c(cccc3c1)CC2 [Acenaphthene] | – | 0.616 | 0.629 | 0.447 | 0.814 | – | – | – | – | –
20 | c1ccc2c(c1)-c1ccc3ccc4cccc5cc-2c1c3c45 [Indeno(1,2,3 cd)pyrene] | 0.822 | 1.102 | 1.067 | 0.803 | – | – | – | – | – | –
